# Results reported in patent publication US7442501B2, “SQV nucleic acids and polypeptides” (Massachusetts Institute of Technology, priority 2002, dated 2008).
# Columns and labels:
# chondroitin synthase [1] = molecular target: T1, chondroitin synthase (Caenorhabditis elegans, UniProt Q7Z1Z1); test: GlcAT (glucuronyl transferase) assay of chondroitin synthase activity in worm protein extracts; format: biochemical
# T1 construct: wild-type (N2) animals were used to prepare worm protein extracts; from tissue; host or cells: whole C. elegans hermaphrodites (young adults), sonicated protein extract
# T1 sequence (Q7Z1Z1 1-736): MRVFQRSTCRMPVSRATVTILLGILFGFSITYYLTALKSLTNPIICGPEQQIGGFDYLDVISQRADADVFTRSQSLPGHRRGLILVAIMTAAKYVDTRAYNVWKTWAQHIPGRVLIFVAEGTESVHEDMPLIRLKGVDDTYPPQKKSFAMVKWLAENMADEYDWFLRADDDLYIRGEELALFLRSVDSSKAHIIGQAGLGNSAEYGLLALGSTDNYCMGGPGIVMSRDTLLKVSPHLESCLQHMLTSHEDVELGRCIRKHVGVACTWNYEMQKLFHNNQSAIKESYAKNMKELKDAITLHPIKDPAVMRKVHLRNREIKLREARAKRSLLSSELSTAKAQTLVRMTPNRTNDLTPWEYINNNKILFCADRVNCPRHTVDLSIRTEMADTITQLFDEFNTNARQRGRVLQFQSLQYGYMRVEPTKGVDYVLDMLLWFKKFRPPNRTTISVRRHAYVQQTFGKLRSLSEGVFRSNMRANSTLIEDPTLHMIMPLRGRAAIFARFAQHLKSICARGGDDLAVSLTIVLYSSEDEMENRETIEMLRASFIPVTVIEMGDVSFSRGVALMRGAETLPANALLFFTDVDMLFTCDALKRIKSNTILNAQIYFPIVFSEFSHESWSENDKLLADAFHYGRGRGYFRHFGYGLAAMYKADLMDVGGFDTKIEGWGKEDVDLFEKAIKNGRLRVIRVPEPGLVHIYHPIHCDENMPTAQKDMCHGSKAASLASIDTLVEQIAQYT
# Description: (§1) sqv-5(n3611), sqv-5(n3611)/hT2, and wild-type (N2) animals were used to prepare worm protein extracts. These extracts were tested for chondroitin synthase activity using standard methods, for example, in DeAngelis et al., (J. Biol. Chem. 27:24124-24129, 2000).
# (§2) A desulfated chondroitin acceptor was used for the GalNAcT (N-acetylgalactosamyl transferase) assay. Desulfated and β-glucuronidase-treated chondroitin acceptor was used for the GlcAT (glucuronyl transferase) assay.
# (§3) The enzymatic activity of SQV-5 was assayed as follows. SQV-5(n3611), sqv-5(n3611)/hT2, and wild-type N2 hermaphrodites were picked as L4 larvae by visual examination of the vulva using a dissecting microscope. The worms staged were allowed to grow for an additional twenty-three to twenty-seven hours at 22° C., re-examined, then transferred to 1.7-ml plastic tubes containing sterile water. The staged worms were washed once with water and twice with 50 mM Tris, pH 7.5, then frozen in a 50 μl volume using liquid nitrogen, and stored at −70° C.
# (§4) Worm extracts were assayed for GIcAT glucoronosyltransferase activity by combining 1.3×10^5 cpm UDP-^3H-glucuronic acid donor (NEN), 6 μg β-glucuronidase-treated chondroitin acceptor, and 2.7 μg worm extract in a 25 μl reaction volume containing 0.05% Triton X-100, 10 mM MnCl2, and 100 μM ATP, pH 6.5. GalNAcT activity was detected by combining 1.3 to 3×10^5 cpm UDP-^3H-GalNAc donor (NEN), 12 μg chondroitin acceptor, and 6.7 μg worm extract in a 25 μl reaction volume containing 0.05% Triton X-100 and 10 mM MnCl2, pH 6.5. […] Pelleted material was resuspended in water and counted by liquid scintillation.
# (§5) The chondroitin acceptor used was prepared as follows. […] Uronic acid concentration of both preparations was determined by the Carbazole method (Bitter, et al., Anal. Biochem. 4:330-334, 1962).
# chondroitin synthase [2] = test: as above; format: biochemical; conditions: extract genotype sqv-5/sqv-5 (sqv-5(n3611))
# Description: as §1, §2, §3, §4, §5
compound,measurement,setting,value
O=C(O)[C@H]1O[C@H](OP(=O)(O)OP(=O)(O)OC[C@H]2O[C@@H](n3ccc(=O)[nH]c3=O)[C@H](O)[C@@H]2O)[C@H](O)[C@@H](O)[C@@H]1O [UDP-glucuronic acid],CPM,chondroitin synthase [1]; extract genotype +/+ (wild-type),1820 CPM
same,CPM,chondroitin synthase [1]; extract genotype +/sqv-5 (sqv-5(n3611)/hT2),1369 CPM
same,CPM,chondroitin synthase [2],109 CPM
